What was measured:
human Nav1.7 = human Nav1.7 (Homo sapiens, UniProt Q15858); assay: FLIPR sodium dye assay (CoroNa Green AM Na+ dye, primary fluorescence assay) in recombinant Nav1.7/HEK293 cells; assay type: cell-based; conditions: Table 6; CoroNa Green AM Na+ dye primary fluorescence assay; read-out: Nav1.7 Activity (μM) FLIPR assay IC50
hNav1.7 = hNav1.7 (Homo sapiens, UniProt Q15858); assay: Electrophysiology (EP) whole-cell patch clamp assay in hNav1.7 expressing HEK-293 cells; assay type: cell-based; conditions: Table 6; for Ki: affinity for inactivated channels, read-out: Nav1.7 Activity (μM) EP assay Ki; for Kd: resting block dissociation constant, read-out: Nav1.7 Activity (μM) EP assay Kr
Chain of hNav1.7 (Q15858 1-1977 isoform Q15858-3): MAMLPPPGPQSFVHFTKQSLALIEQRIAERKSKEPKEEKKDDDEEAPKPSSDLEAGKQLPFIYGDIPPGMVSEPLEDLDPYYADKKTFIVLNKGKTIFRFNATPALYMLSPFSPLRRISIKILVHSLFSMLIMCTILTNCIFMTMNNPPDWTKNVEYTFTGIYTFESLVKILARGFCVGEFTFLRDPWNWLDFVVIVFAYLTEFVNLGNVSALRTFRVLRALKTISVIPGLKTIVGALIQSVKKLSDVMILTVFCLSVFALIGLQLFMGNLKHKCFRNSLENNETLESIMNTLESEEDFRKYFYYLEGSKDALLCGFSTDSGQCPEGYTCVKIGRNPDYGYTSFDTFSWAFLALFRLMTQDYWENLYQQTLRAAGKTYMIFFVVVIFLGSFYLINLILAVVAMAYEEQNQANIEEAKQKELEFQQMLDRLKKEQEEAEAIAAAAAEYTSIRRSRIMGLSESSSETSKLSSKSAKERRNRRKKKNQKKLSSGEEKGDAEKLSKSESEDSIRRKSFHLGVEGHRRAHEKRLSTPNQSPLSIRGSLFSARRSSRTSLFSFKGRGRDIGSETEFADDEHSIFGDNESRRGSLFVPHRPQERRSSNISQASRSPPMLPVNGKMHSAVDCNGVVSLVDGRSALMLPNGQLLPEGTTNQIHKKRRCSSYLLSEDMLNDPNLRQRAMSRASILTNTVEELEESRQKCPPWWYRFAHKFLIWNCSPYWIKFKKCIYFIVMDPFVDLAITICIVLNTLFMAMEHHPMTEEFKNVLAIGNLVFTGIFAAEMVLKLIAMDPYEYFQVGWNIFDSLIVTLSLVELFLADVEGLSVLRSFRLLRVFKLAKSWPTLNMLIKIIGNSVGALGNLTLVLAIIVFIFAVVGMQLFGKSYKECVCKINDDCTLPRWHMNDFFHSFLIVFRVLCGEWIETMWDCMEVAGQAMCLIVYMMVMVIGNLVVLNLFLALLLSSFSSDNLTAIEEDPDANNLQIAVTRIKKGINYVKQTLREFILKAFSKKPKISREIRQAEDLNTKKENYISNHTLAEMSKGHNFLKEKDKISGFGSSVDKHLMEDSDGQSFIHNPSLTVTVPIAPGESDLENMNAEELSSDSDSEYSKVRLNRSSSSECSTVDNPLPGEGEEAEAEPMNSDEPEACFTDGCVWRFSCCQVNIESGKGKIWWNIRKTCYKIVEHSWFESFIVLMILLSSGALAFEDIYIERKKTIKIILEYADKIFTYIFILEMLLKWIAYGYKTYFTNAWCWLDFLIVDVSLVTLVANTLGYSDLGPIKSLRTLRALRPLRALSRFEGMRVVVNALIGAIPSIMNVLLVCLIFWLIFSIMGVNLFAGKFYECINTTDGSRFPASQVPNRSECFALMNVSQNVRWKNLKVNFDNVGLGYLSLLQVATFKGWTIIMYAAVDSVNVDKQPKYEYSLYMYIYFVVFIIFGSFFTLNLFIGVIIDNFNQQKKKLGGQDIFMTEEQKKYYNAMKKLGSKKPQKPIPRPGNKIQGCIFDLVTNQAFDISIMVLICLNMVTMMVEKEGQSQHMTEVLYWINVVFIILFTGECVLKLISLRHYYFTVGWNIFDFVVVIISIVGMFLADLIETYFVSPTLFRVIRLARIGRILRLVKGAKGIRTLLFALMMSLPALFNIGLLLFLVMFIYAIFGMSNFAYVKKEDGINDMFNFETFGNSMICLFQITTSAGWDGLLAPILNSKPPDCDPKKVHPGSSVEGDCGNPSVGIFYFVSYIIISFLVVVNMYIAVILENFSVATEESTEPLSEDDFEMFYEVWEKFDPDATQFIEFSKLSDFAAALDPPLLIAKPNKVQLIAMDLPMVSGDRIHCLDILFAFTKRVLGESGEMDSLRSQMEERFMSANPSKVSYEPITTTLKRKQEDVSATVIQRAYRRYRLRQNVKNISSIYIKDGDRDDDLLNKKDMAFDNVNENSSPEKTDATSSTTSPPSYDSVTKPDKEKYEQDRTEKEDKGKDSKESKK
Experimental: The hNav1.7 expressing HEK-293 cells were plated on 35 mm culture dishes pre-coated with poly-D-lysine in standard DMEM culture media (Mediatech, Inc., Herndon, Va.) and incubated in a 5% CO2 incubator at 37° C. Cultured cells were used approximately 12-48 h after plating.
On the day of experimentation, the 35 mm dish was placed on the stage of an inverted microscope equipped with a perfusion system that continuously perfuses the culture dish with fresh recording media. A gravity driven superfusion system was used to apply test solutions directly to the cell under evaluation. This system consists of an array of glass pipette glass connected to a motorized horizontal translator. The outlet of the shooter was positioned approximately 100 μm from the cell of interest.
Whole cell currents were recorded using the whole-cell patch clamp configuration using an Axopatch 200B amplifier (Axon Instruments, Foster City Calif.), 1322A A/D converter (Axon Instruments) and pClamp software (v. 8; Axon Instruments) and stored on a personal computer. Gigaseals were formed and the whole-cell configuration was established in voltage clamp mode, and membrane currents generated by hNav1.7 were recorded in gap-free mode. Borosilicate glass pipettes have resistance values between 1.5 and 2.0 MΩ when filled with pipette solution and series resistance (<5 MΩ) was compensated 75-80%. Signals were sampled at 50 kHz and low pass filtered at 3 kHz.
After establishing the whole-cell configuration in voltage clamp mode, two voltage protocols were run to establish: 1) the holding potential; and 2) the test potential for each cell.
To determine a membrane potential at which the majority of channels are in the resting state, a standard steady-state inactivation (SSIN) protocol was run using 100 ms prepulses×10 mV depolarizing steps. The holding potential for testing resting block (Vh1) was 20 mV more hyperpolarized than the first potential where inactivation is observed with the inactivation protocol.
From this holding potential a standard I-V protocol was run to determine the potential at which the maximal current (Imax) was elicited. This potential was the test potential (Vt).
The compound testing protocol was a series of 10 ms depolarizations from the Vh1 (determined from the SSIN) to the Vt (determined from the I-V protocol) repeated every 10-15 seconds. […] Washout of the compound was attempted by superfusing with control solution once steady-state block was observed. The fractional response was calculated as follows: FR=I(after drug)/I(control), where I is the peak current amplitude and was used for estimating resting block dissociation constant, Kr: Kr=[drug]*{FR/(1−FR)}, where [drug] is the concentration of a drug.
To assess the block of inactivated channels the holding potential was depolarized such that 20-50% of the current amplitude was reduced when pulsed to the same Vt as above. The magnitude of this depolarization depends upon the initial current amplitude and the rate of current loss due to slow inactivation. This was the second holding potential (Vh2). The current reduction was recorded to determine the fraction of available channels at this potential (h). h=I@Vh2/Imax.
At this membrane voltage a proportion of channels are in the inactivated state, and thus inhibition by a blocker includes interaction with both resting and inactivated channels.
To determine the potency of the test compound on inactivated channels, a series of currents were elicited by 10 ms voltage steps from Vh2 to Vt every 10-15 seconds. After establishing a stable baseline, the low concentration of the compound was applied. Multiple cumulative concentrations may have to be applied to identify a concentration that will block between 40-60% of the current. Washout was attempted to re-establish baseline. Fractional responses were measured with respect to a projected baseline to determine Kapp. Kapp=[drug]*{FR/(1−FR)}, where [drug] is the concentration of a drug. […]

Chain of human Nav1.7 (Q15858 1-1977 isoform Q15858-3): as above

| IC50 (human Nav1.7) [µM] | Ki (hNav1.7) [µM] | Kd (hNav1.7) [µM] | SMILES |
| --- | --- | --- | --- |
| 1.61 | 0.29 | – | NC(=O)c1cc(N[C@H]2CCNC2=O)nc(-c2ccc(Cc3ccc(C(F)(F)F)cn3)cc2)n1 [Cpd No. 190, (S)-6-((2-oxopyrrolidin-3-yl)amino)-2-(4-((5-(trifluoro-methyl)pyridin-2-yl)methyl)-phenyl)pyrimidine-4-carboxamide] |
| 0.2 | 0.027 | 0.83 | NC(=O)c1cc(N[C@H]2CCNC2=O)nc(-c2ccc(Oc3cc(Cl)ccc3F)cc2)n1 [compound 117, (S)-2-(4-(5-chloro-2-fluorophenoxy)phenyl)-6-((2-oxopyrrolidin-3-yl)amino)pyrimidine-4-carboxamide] |
| 0.39 | 0.57 | 7.17 | NC(=O)c1cc(N[C@H]2CCNC2=O)nc(-c2ccc(Oc3ccc(Cl)cn3)cc2)n1 [compound 133, (S)-2-(4-((5-chloropyridin-2-yl)oxy)phenyl)-6-((2-oxopyrrolidin-3-yl)amino)pyrimidine-4-carboxamide] |
| 2.42 | 0.82 | 22.1 | NC(=O)c1cc(N[C@H]2CCNC2=O)nc(-c2ccc(Oc3cccc(F)n3)cc2)n1 [compound 134, (S)-2-(4-((6-fluoropyridin-2-yl)oxy)phenyl)-6-((2-oxopyrrolidin-3-yl)amino) pyrimidine-4-carboxamide] |
| > 20 | – | – | O=C(O)c1cc(N[C@H]2CCNC2=O)nc(-c2ccc(Oc3ccc(C(F)(F)F)cn3)cc2)n1 [compound 157, (S)-6-((2-oxopyrrolidin-3-yl)amino)-2-(4-((5-(trifluoromethyl)pyridin-2-yl)oxy)phenyl)pyrimidine-4-carboxylic acid] |
| 0.89 | – | – | NC(=O)c1cc(N[C@H]2CCNC2=O)nc(-c2ccc(Oc3ccc(F)cc3)cc2CN2CCCCC2)n1 [compound 158, (S)-2-(4-(4-fluorophenoxy)-2-(piperidin-1-ylmethyl)phenyl)-6-((2-oxopyrrolidin-3-yl)amino)pyrimidine-4-carboxamide] |
| 6.67 | – | – | NC(=O)c1cc(N[C@H]2CCNC2=O)nc(-c2ccc(Oc3ccc(F)cc3)cc2CN2CCCC2)n1 [compound 160, (S)-2-(4-(4-fluorophenoxy)-2-(pyrrolidin-1-ylmethyl)phenyl)-6-((2-oxopyrrolidin-3-yl)amino)pyrimidine-4-carboxamide] |
| 1.9 | – | – | NC(=O)c1cc(N[C@H]2CCNC2=O)nc(-c2ccc(C(=O)c3ccc(C(F)(F)F)cn3)cc2)n1 [compound 162, (S)-6-((2-oxopyrrolidin-3-yl)amino)-2-(4-(5-(trifluoromethyl)picolinoyl)phenyl)pyrimidine-4-carboxamide] |
| 1.43 | – | – | NC(=O)c1cc(N[C@H]2CCNC2=O)nc(-c2ccc(Oc3ccc(F)cc3)cc2CNC2CC2)n1 [compound 163, (S)-2-(2-((cyclopropylamino)methyl)-4-(4-fluorophenoxy)phenyl)-6-((2-oxopyrrolidin-3-yl)amino)pyrimidine-4-carboxamide] |
| 1.45 | – | – | NC(=O)c1cc(N[C@H]2CCNC2=O)nc(-c2ccc(Oc3ccc(F)cc3)cc2Cn2cncn2)n1 [compound 164, (S)-2-(2-((1H-1,2,4-triazol-1-yl)methyl)-4-(4-fluorophenoxy)phenyl)-6-((2-oxopyrrolidin-3-yl)amino)pyrimidine-4-carboxamide] |
| 1.19 | – | – | NC(=O)c1cc(N[C@H]2CCNC2=O)nc(-c2ccc(Oc3cnc(C4CC4)cn3)cc2)n1 [compound 165, (S)-2-(4-((5-cyclopropylpyrazin-2-yl)oxy)phenyl)-6-((2-oxopyrrolidin-3-yl)amino)pyrimidine-4-carboxamide] |
| 3.9 | – | – | NC(=O)c1cc(N[C@H]2CCNC2=O)nc(Oc2ccc(Oc3ccc(C(F)(F)F)cn3)cc2)n1 [compound 166, (S)-6-((2-oxopyrrolidin-3-yl)amino)-2-(4-((5-(trifluoromethyl)pyridin-2-yl)oxy)phenoxy)pyrimidine-4-carboxamide] |
| > 20 | – | – | NC(=O)c1cc(N[C@H]2CCNC2=O)nc(-c2ccc(Oc3ccc(F)cc3)cc2CN2CCC2)n1 [compound 167, (S)-2-(2-(azetidin-1-ylmethyl)-4-(4-fluorophenoxy)phenyl)-6-((2-oxopyrrolidin-3-yl)amino)pyrimidine-4-carboxamide] |
| 1.73 | – | – | NC(=O)c1cc(N[C@H]2CCNC2=O)nc(-c2ccc(Oc3ccc(C(F)(F)F)cc3CN3CCC3)cc2)n1 [compound 168, (S)-2-(4-(2-(azetidin-1-ylmethyl)-4-(trifluoromethyl)phenoxy)phenyl)-6-((2-oxopyrrolidin-3-yl)amino)pyrimidine-4-carboxamide] |
| 0.74 | – | – | NC(=O)c1cc(N[C@H]2CCNC2=O)nc(-c2ccc(Oc3ccc(C(F)(F)F)cc3CN3CCCC3)cc2)n1 [compound 169, (S)-6-((2-oxopyrrolidin-3-yl)amino)-2-(4-(2-(pyrrolidin-1-ylmethyl)-4-(trifluoromethyl)phenoxy)phenyl) pyrimidine-4-carboxamide] |
| 1.17 | – | – | C[C@H](Nc1cc(C(N)=O)nc(-c2ccc(Oc3ccc(C(F)(F)F)cc3CN3CCCC3)cc2)n1)C(N)=O [compound 170, (S)-6-((1-amino-1-oxopropan-2-yl)amino)-2-(4-(2-(pyrrolidin-1-ylmethyl)-4-(trifluoromethyl)phenoxy)phenyl) pyrimidine-4-carboxamide] |
| 0.25 | – | – | C[C@H](Nc1cc(C(N)=O)nc(-c2ccc(Oc3ccc(C(C)(C)C)cc3)cc2)n1)C(N)=O [compound 171, (S)-6-((1-amino-1-oxopropan-2-yl)amino)-2-(4-(4-(tert-butyl)phenoxy)phenyl)pyrimidine-4-carboxamide] |
| 2.07 | – | – | NC(=O)c1cc(N[C@H]2CCNC2=O)nc(Nc2ccc(Oc3ccc(C(F)(F)F)cn3)cc2)n1 [compound 172, (S)-6-((2-oxopyrrolidin-3-yl)amino)-2-((4-((5-(trifluoromethyl)pyridin-2-yl)oxy)phenyl)amino)pyrimidine-4-carboxamide] |

| SMILES | IC50 (human Nav1.7) [µM] | Ki (hNav1.7) [µM] | Kd (hNav1.7) [µM] |
| --- | --- | --- | --- |
| NC(=O)c1cc(N[C@H]2CCNC2=O)nc(N2[C@@H]3CC[C@H]2C[C@H](Oc2ccc(C(F)(F)F)cn2)C3)n1 [Cpd No. 183, 6-(((S)-2-oxopyrrolidin-3-yl)amino)-2-((1R,3R,5S)-3-((5-(trifluoromethyl)pyridin-2-yl)oxy)-8-azabicyclo[3.2.1]octan-8-yl)pyrimidine-4-carboxamide] | 1.27 | 0.49 | – |
| C[C@H](Nc1cc(C(N)=O)nc(N2C3CCC2CC(Oc2ccc(C(F)(F)F)cc2-c2ccncc2)C3)n1)C(N)=O (stereo partly drawn) [compound 155, 6-(((S)-1-amino-1-oxopropan-2-yl)amino)-2-(3-(2-(pyridin-4-yl)-4-(trifluoromethyl)phenoxy)-8-azabicyclo[3.2.1]octan-8-yl)pyrimidine-4-carboxamide] | 4.1 | – | – |
| NC(=O)c1cc(N[C@H]2CCNC2=O)nc(N2C3CCC2CC(Oc2ccc(C(F)(F)F)cc2-c2cccnc2)C3)n1 (stereo partly shown) [compound 156] | 1.77 | – | – |
| NC(=O)c1cc(N[C@H]2CCNC2=O)nc(N2C3CCC2CC(Oc2ccc(F)cc2)C3)n1 (stereo partly drawn) [compound 159, 2-(3-(4-fluorophenoxy)-8-azabicyclo[3.2.1]octan-8-yl)-6-(((S)-2-oxopyrrolidin-3-yl)amino)pyrimidine-4-carboxamide] | 1.29 | – | – |
| C[C@H](Nc1cc(C(N)=O)nc(N2C3CCC2CC(Oc2ccc(F)cc2)C3)n1)C(N)=O (stereo partly drawn) [compound 161, 6-(((S)-1-amino-1-oxopropan-2-yl)amino)-2-(3-(4-fluorophenoxy)-8-azabicyclo[3.2.1]octan-8-yl)pyrimidine-4-carboxamide] | 3.24 | – | – |

Source: patent US10196364B2, “Pyrimidine carboxamides as sodium channel blockers” (Purdue Pharma L.P., priority 2013, dated 2019)
